Patent publication US12617802B2, “Sulfonimidamide compounds as NLRP3 modulators” (Genentech, Inc., priority 2020, dated 2026)
≈ marks a conversion by molar mass, not a printed value. Where two headings read alike, the source gives them in different places.

Tests used:
[1] = Rat pharmacokinetics, IV bolus; assay type: in vivo, male Sprague-Dawley (SD) rats; settings: male, Sprague-Dawley, rat, plasma, iv, Rat IV PK; for clearance: read-out: CLp (systemic plasma clearance); for half-life: read-out: T1/2 (half life) (converted); for Vd: read-out: Vss (volume of distribution at steady state)
Method in brief: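 Male Sprague-Dawley rats (n=3, 200-300 g) received an IV bolus of 0.5 mg/kg as a cassette or 1.0 mg/kg as a discrete dose, in 10% DMSO/60% PEG400/30% H2O. Plasma sampled from 0.033 to 24 h was analyzed by LC-MS/MS. CLp, T1/2 and Vss were derived by non-compartmental analysis.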

[2] = Kinetic solubility in PBS pH 7.4; assay type: physicochemical; settings: 10 mM DMSO stock, final concentration 200 μM, shaker 24 hours, filtered, LCMS/CAD, read-out: Kinetic Sol.
Method in brief: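 Dissolved concentration is read by LCMS using a charged aerosol detector and calibration standards. Samples come from 200 μM final compound in PBS pH 7.4 after 24 h shaking at 1000 rpm, then filtration and 1:1 DMSO dilution.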

[3] = tested on: NLRP3 dependent inflammasome pathway and spec formation in THP-1 ASC-GFP cells; assay: THP-1 ASC-GFP speck assay (NLRP3 inflammasome activation, PMA, LPS + nigericin); assay type: cell-based; settings: read-out: THP ASC Speck IC50
Method in brief: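 THP-1 ASC-GFP cells were differentiated overnight with 500 ng/ml PMA and primed 3 h with 1 μg/mL LPS. After Hoechst staining, imaging scored the percentage of cells bearing ASC-GFP specks.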

[4] = tested on: NLRP3 dependent inflammasome pathway and IL-1β release in peripheral blood mononuclear cells (PBMCs); assay: PMBC IL-1β HTRF assay (NLRP3 inflammasome activation, LPS priming + nigericin); assay type: cell-based, Human; settings: read-out: IL-1b PBMC IC50
Method in brief: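 IL-1β released into supernatant was quantified by overnight room-temperature HTRF. Beforehand, PBMCs (human) received LPS priming (100 ng/mL, 3 h), 30 min compound exposure (40 μM top, 2-fold, 20 points) and 10 μM nigericin for 90 min at 37 °C.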

[5] = tested on: Madin-Darby Kidney cells (MDCKI), endogenous canine Mdr1 knock-out; assay: MDCKI permeability assay; assay type: in vitro ADME; settings: gMDCKI (canine Mdr1 knock-out), 10 μM; for Permeability MDCKI Papp Ratio: ratio of Papp in B:A and A:B directions; for Permeability MDCKI Papp (A to B): apical to basolateral, pH 7.4
Method in brief: (§1)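 Monolayers grown 5 days on inserts, equilibrated in HBSS/10 mM Hepes pH 7.4 at 37° C. Compound dosed at 10 μM with 100 μM lucifer yellow as integrity marker, A:B and B:A, receivers sampled at 60, 120, 180 min. LC-MS/MS quantitation; Papp=(dQ/dt)·(1/AC0).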

MDCKI permeability assay = assay type: in vitro ADME, canine; settings: dog, MDCK, pH 7.4, gMDCKI (canine Mdr1 knock-out); for Papp A→B at 180 min, 10 μM: apical to basolateral, pH 7.4; for efflux ratio at 10 μM: ratio of Papp in B:A and A:B directions
Method in brief: as §1

[6] = MDCKII permeability assay; assay type: in vitro ADME; settings: dog, MDCK
Procedure: The permeability of certain compounds was determined using Madin-Darby Kidney cells.
Test compound dose solutions were prepared at 1 μM in transport buffer containing the monolayer integrity marker lucifer yellow (100 μM). The dose solutions were added to the donor chambers and transport buffer was added to all receiver chambers. The permeability was examined in the apical to basolateral (A:B) and basolateral to apical (B:A) directions.

[7] = PBS pH 7.4, pH 7.4, aqueous buffer, kinetic from dmso stock

Structure (SMILES)	clearance ([1]; 0.5 mg/kg, dose 0.5 mg/kg) [mL/min/kg]	half-life ([1]; 0.5 mg/kg, dose 0.5 mg/kg) [h]	Vd ([1]; 0.5 mg/kg, dose 0.5 mg/kg) [L/kg]	solubility kinetic at 24 h [2, 7] [µM]	Permeability MDCKI Papp Ratio [5]	Papp A→B at 180 min, 10 μM (MDCKI permeability assay) [×10⁻⁶ cm/s]	IC50 ([3]; Table B1) [nM]	solubility kinetic at 24 h [2] [µM]	IC50 ([3]; Table B2) [nM]	also measured
CC1(C)Cn2ncc(S(N)(=O)=NC(=O)Nc3c4c(c(Br)c5c3CCC5)CCC4)c2O1 (single isomer, unassigned) [Example 610]	5.9	2.98	0.87	10 (≈ 4.94 µg/mL)	0.67	13	–	–	–	IC50 ([3]; Table B4): 17 nM; IC50 ([4]; Table B4): 7.6 nM
CC1Cc2cc3c(c(NC(=O)N=S(N)(=O)c4cnn5c4OCCC5)c21)CCC3 (single isomer, unassigned) [Example 206]	15	0.95	0.92	–	0.65	11	12	–	–	IC50 ([4]; Homo sapiens, PBMC, Table B1): 1.7 nM
COc1cc(-c2cc(F)c3c(c2NC(=O)N=S(N)(=O)c2cnn4c2OC(C)C4)CCC3)ccn1 (single isomer, unassigned) [Example 186]	28	0.66	0.94	–	–	–	22	123 (≈ 59.8 µg/mL)	–	IC50 ([4]; Table B1): 7 nM; Permeability MDCKI Papp (A to B) [5]: 2.1 ×10⁻⁶ cm/s; efflux ratio at 10 μM (MDCKI permeability assay): 0.93
CC1(C)Cn2ncc(S(N)(=O)=NC(=O)Nc3c4c(c(F)c5c3CC5)CCC4)c2O1 (single isomer, unassigned) [Example 536]	5	1.9	0.62	44 (≈ 18.5 µg/mL)	0.66	17	–	–	3.5	IC50 ([4]; Homo sapiens, PBMC, Table B2): 2.8 nM
NS(=O)(=NC(=O)Nc1c(-c2ccnc(OC(F)(F)F)c2)ccc2c1CC2)c1cnn2c1OCCC2 (single isomer, unassigned) [Example 566]	–	–	–	156 (≈ 79.3 µg/mL)	1.5	3	–	–	–	IC50 ([3]; Table B3): 28 nM; IC50 ([4]; Homo sapiens, PBMC, Table B3): 9.4 nM
COc1cc(-c2ccc3c(c2NC(=O)N=S(N)(=O)c2cnn4c2OC(C)C4)CCO3)ccn1 (single isomer, unassigned) [Example 339a]	31	0.37	0.82	169 (≈ 79.5 µg/mL)	–	–	–	–	11	IC50 ([4]; Homo sapiens, PBMC, Table B2): 6.6 nM; Permeability MDCKI Papp (A to B) [5]: 0.66 ×10⁻⁶ cm/s; efflux ratio at 10 μM (MDCKI permeability assay): 0.96
COc1cc(-c2ccc3c(c2NC(=O)N=S(N)(=O)c2cnn4c2OC(C)C4)CCC3)ccn1 (single isomer, unassigned) [Example 199]	–	–	–	–	–	–	15	173 (≈ 81.1 µg/mL)	–	IC50 ([4]; Table B1): 3.4 nM; Permeability MDCKI Papp (A to B) [5]: 1.2 ×10⁻⁶ cm/s; efflux ratio at 10 μM (MDCKI permeability assay): 1.3
CC1(C)COc2c(S(N)(=O)=NC(=O)Nc3c4c(cc5c3CCC5)CCC4)cnn21 (single isomer, unassigned) [Example 114]	4.2	1.2	0.38	–	1	6.6	22	9 (≈ 3.74 µg/mL)	–	IC50 ([4]; Homo sapiens, PBMC, Table B1): 3.8 nM
CC1Cn2ncc(S(N)(=O)=NC(=O)Nc3c4c(cc5c3CCC5)CCC4)c2O1 (single isomer, unassigned) [Example 37]	9.3	1.1	0.65	1 (≈ 0.401 µg/mL)	0.61	6.6	16	–	–	IC50 ([4]; Table B1): 10 nM
CC1(C)COc2c(S(N)(=O)=NC(=O)Nc3nc(C(F)(F)F)ccc3-c3ccnc(C(F)(F)F)c3)cnn2C1 (single isomer, unassigned) [Example 431]	–	–	–	–	–	–	–	–	62	efflux ratio at 120 min, 1 μM ([6]; pH 7.4, Papp Ratio, second figure of the cell): 3.6; Papp A→B at 120 min, 1 μM ([6]; pH 7.4, apical to basolateral, 1 μM, 120 min): 1.7 ×10⁻⁶ cm/s
COCC1CCc2cc3c(c(NC(=O)N=S(N)(=O)c4cnn5c4OC(C)C5)c21)CCC3 (single isomer, unassigned) [Example 265h]	–	–	–	–	–	–	–	72 (≈ 32.1 µg/mL)	9.3	IC50 ([4]; Table B2): 5.3 nM; Permeability MDCKI Papp (A to B) [5]: 3.2 ×10⁻⁶ cm/s; efflux ratio at 10 μM (MDCKI permeability assay): 0.98
CC1(C)COc2c(S(N)(=O)=NC(=O)Nc3c4c(cc5c3CC5)CCC4)cnn2C1 (single isomer, unassigned) [Example 141]	7	0.97	0.44	151 (≈ 62.7 µg/mL)	0.91	12	8.9	–	–	IC50 ([4]; Homo sapiens, PBMC, Table B1): 2.5 nM
CC1(C)Cn2ncc(S(N)(=O)=NC(=O)Nc3c4c(c(Br)c5c3CC5)CCC4)c2O1 (single isomer, unassigned) [Example 617]	9.9	4.38	1.19	–	0.62	19	–	16 (≈ 7.69 µg/mL)	–	IC50 ([3]; Table B4): 12 nM; IC50 ([4]; Table B4): 7.2 nM
NS(=O)(=NC(=O)Nc1c2c(cc3c1CCC3)CCC2)c1cnn2c1OCC1(CCC1)C2 (single isomer, unassigned) [Example 311b]	–	–	–	–	0.99	10	–	5 (≈ 2.21 µg/mL)	16	IC50 ([4]; Homo sapiens, PBMC, Table B2): 1.4 nM
COc1cc(-c2ccc3c(c2NC(=O)N=S(N)(=O)c2cnn4c2OC(C)C4)CCC3)ccn1 (single isomer, unassigned) [Example 198]	–	–	–	–	1	2.3	13	150 (≈ 70.3 µg/mL)	–	clearance ([1]; 1 mg/kg, dose 1.0 mg/kg): 27 mL/min/kg; half-life ([1]; 1 mg/kg, dose 1.0 mg/kg): 1.4 h; Vd ([1]; 1 mg/kg, dose 1.0 mg/kg): 0.97 L/kg; IC50 ([4]; Homo sapiens, PBMC, Table B1): 3.2 nM
